# Measured values taken from ChEMBL document CHEMBL2073779, “pH-dependent bidirectional transport of weakly basic drugs across Caco-2 monolayers: implications for drug-drug interactions” (Pharm Res, 2003).
# Target: ATP-dependent translocase ABCB1 (Homo sapiens, UniProt P08183)
# Experiment: TP_TRANSPORTER: transepithelial transport in Caco-2 cells
# Format: functional, cell-based
# Chain of ATP-dependent translocase ABCB1 (P08183 whole entry): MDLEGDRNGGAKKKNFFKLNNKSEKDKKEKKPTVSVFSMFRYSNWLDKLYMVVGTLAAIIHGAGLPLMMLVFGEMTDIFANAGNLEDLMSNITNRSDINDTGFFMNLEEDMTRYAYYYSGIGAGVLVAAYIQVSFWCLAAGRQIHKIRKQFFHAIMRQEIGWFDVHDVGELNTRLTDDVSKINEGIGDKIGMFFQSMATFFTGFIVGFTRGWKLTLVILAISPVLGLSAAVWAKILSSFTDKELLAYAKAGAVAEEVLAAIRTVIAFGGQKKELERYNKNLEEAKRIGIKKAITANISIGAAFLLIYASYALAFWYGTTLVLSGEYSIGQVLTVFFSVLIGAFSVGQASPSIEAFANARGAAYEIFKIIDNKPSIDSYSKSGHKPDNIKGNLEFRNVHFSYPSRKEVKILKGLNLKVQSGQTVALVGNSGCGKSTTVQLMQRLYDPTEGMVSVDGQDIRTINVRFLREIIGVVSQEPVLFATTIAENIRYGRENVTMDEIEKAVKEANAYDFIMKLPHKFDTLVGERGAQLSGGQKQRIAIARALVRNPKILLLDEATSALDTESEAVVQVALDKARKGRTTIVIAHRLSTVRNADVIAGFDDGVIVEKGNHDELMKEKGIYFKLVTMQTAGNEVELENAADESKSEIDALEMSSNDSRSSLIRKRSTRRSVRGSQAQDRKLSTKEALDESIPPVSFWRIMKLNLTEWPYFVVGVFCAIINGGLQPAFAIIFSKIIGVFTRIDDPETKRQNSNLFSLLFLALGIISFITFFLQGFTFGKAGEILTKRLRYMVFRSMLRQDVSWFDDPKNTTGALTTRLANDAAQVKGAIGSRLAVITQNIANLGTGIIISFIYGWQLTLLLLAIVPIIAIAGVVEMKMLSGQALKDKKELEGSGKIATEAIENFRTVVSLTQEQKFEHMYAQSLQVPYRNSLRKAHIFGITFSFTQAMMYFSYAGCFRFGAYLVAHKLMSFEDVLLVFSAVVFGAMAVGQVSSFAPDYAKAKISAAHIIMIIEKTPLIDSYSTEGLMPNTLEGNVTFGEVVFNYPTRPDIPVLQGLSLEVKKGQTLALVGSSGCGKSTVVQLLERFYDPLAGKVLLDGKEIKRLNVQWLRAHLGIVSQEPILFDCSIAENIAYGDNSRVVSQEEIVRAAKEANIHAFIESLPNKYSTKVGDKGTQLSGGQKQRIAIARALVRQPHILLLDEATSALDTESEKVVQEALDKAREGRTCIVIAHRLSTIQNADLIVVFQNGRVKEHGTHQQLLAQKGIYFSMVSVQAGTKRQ
row,Activity,SMILES
1,is not a substrate [-],COCCc1ccc(OCC(O)CNC(C)C)cc1 (configuration not stated) [METOPROLOL]
2,substrate [+],C[C@H]1O[C@@H](O[C@H]2[C@@H](O)C[C@H](O[C@H]3[C@@H](O)C[C@H](O[C@H]4CC[C@@]5(C)[C@H](CC[C@@H]6[C@@H]5C[C@@H](O)[C@]5(C)[C@@H](C7=CC(=O)OC7)CC[C@]65O)C4)O[C@@H]3C)O[C@@H]2C)C[C@H](O)[C@@H]1O [DIGOXIN]
